Data taken from patent US12668600B2 (Kumquat Biosciences Inc., priority 2023, dated 2026).

How the values were obtained:
Format in all cases: biochemical
KRAS G12D = target: T1, KRAS G12D (Homo sapiens, UniProt P01116, G12D); assay: HTRF KRAS-SOS1 interaction assay, KRAS G12D; conditions: binned ≤2 μM / >2 μM, read-out: Inhibition of KRAS G12D (IC50)
T1 construct: made in house; host or cells: E. coli, e.g. BL21 (DE3)
Source text: (§1) This assay can be also used to assess a selective inhibition or reduction of signaling output of a mutant Ras protein relative to a wildtype, or relative to a different mutant Ras protein. For example, the equilibrium interaction of wildtype KRAS or K-Ras mutant (e.g., wildtype or a mutant thereof) with SOS1 (e.g., hSOS1) can be assessed as a proxy or an indication for the ability of a subject compound to bind and inhibit Ras protein. The HTRF assay detects from (i) a fluorescence resonance energy transfer (FRET) donor (e.g., antiGST-Europium) that is bound to GST-tagged K-Ras mutant to (ii) a FRET acceptor (e.g., anti-6His-XL665) bound to a His-tagged hSOS1.
(§2) The assay buffer can contain ˜5 mM HEPES pH 7.4, ˜150 mM NaCl, ˜1 mM DTT, 0.05% BSA and 0.0025% (v/v) Igepal. A Ras working solution is prepared in an assay buffer containing typically a suitable amount of the protein construct (e.g., GST-tagged K-Ras mutant) and the FRET donor (e.g., antiGST-Eu (K) from Cisbio, France). A SOS1 working solution is prepared in an assay buffer containing suitable amount of the protein construct (e.g., His-hSOS1) and the FRET acceptor (e.g., anti-6His-XL665 from Cisbio, France). A suitable amount of the protein construct will depend on the range of activity or range of IC50 values being detected or under investigation. For detecting an IC50 within a range of 500 nM, the protein constructs of the same range of molarity can be utilized.
(§3) A fixed volume of DMSO with or without test compound is transferred into a 384-well plate. Ras working solution is added to all wells of the test plate. SOS1 working solution is added to all wells except for those that are subsequently filled with inhibitor control solution. Upon incubation for about 10 minutes or longer, the fluorescence is measured with a M1000Pro plate reader (Tecan) using HTRF detection (excitation 337 nm, emission 1:620 nm, emission 2:665 nm). Compounds are tested in duplicate at different concentrations (for example, 10 μM, 2.5 μM, 0.63 μM, 0.16 μM, 0.04 μM, 0.01 μM test compound). The ratiometric data (i.e., emission 2 divided by emission 1) is used to calculate IC50 values against Ras using GraphPad Prism (GraphPad software). Signaling output measured in terms of IC50 values can be obtained and a ratio of IC50 against one mutant relative to another mutant can be calculated.

KRAS WT = target: T2, KRAS WT (Homo sapiens, UniProt P01116); assay: HTRF KRAS-SOS1 interaction assay, wildtype KRAS; conditions: binned ≤2 μM / >2 μM, read-out: Inhibition of KRAS WT (IC50)
T2 construct: made in house; host or cells: E. coli, e.g. BL21 (DE3)
Source text: as §1, §2, §3

KRAS G12V = target: T3, KRAS G12V (Homo sapiens, UniProt P01116, G12V); assay: HTRF KRAS-SOS1 interaction assay, KRAS G12V; conditions: binned ≤2 μM / >2 μM, read-out: Inhibition of KRAS G12V (IC50)
T3 construct: made in house; host or cells: E. coli, e.g. BL21 (DE3)
Source text: as §1, §2, §3

KRAS G12S = target: T4, KRAS G12S (Homo sapiens, UniProt P01116, G12S); assay: HTRF KRAS-SOS1 interaction assay, KRAS G12S; conditions: binned ≤2 μM / >2 μM, read-out: Inhibition of KRAS G12S (IC50)
T4 construct: made in house; host or cells: E. coli, e.g. BL21 (DE3)
Source text: as §1, §2, §3

T3 sequence (P01116 1-188 isoform P01116-2 G12V): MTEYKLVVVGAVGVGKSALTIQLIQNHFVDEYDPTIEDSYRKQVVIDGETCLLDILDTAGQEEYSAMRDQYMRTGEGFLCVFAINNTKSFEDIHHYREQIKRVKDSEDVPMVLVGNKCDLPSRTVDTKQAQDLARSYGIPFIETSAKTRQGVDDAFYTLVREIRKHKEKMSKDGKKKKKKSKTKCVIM
T2 sequence (P01116 1-188 isoform P01116-2): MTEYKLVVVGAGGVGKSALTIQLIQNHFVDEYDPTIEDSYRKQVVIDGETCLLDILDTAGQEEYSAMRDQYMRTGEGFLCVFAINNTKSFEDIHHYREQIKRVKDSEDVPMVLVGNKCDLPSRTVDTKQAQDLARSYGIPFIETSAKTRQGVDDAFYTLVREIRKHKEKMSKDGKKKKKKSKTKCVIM
T1 sequence (P01116 1-188 isoform P01116-2 G12D): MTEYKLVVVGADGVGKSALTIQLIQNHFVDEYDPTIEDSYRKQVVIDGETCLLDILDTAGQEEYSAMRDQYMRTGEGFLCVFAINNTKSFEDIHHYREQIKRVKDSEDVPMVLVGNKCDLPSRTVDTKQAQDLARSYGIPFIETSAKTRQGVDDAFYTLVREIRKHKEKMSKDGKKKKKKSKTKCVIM
T4 sequence (P01116 1-188 isoform P01116-2 G12S): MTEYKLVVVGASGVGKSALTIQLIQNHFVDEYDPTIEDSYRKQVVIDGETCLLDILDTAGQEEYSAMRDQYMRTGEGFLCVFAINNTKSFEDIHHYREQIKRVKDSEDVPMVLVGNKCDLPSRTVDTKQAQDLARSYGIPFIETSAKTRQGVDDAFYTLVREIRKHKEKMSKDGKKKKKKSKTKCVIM

| Compound | IC50 (KRAS G12D) | IC50 (KRAS WT) | IC50 (KRAS G12V) | IC50 (KRAS G12S) |
| --- | --- | --- | --- | --- |
| N#Cc1c(N)sc2c(F)ccc(-c3c(Cl)c4c5c(nc(OC[C@@]67CCCN6C[C@H](F)C7)nc5c3F)N(C(C=C(F)F)c3cccnc3N)CCO4)c12 (single isomer, unassigned) [Compound 655] | – | ≤ 2000 nM | ≤ 2000 nM | ≤ 2000 nM |
| C=CC[C@H](c1cccnc1N)N1CCOc2c(C(F)(F)F)c(-c3ccc(F)c4sc(N)c(C#N)c34)c(F)c3nc(OC[C@@]45CCCN4C[C@H](F)C5)nc1c23 (single isomer, unassigned) [Compound 616] | – | ≤ 2000 nM | ≤ 2000 nM | ≤ 2000 nM |
| CO/N=C1\CN2CCC[C@@]2(COc2nc3c4c(c(Cl)c(-c5ccc(F)c6sc(N)c(C#N)c56)c(F)c4n2)OCCN3[C@H](C)c2cccnc2N)C1 (single isomer, unassigned) [Compound 607] | – | ≤ 2000 nM | ≤ 2000 nM | ≤ 2000 nM |
| C[C@H](c1cccnc1N)N1CCOc2c(Cl)c(-c3ccc(F)c4sc(N)c(C#N)c34)c(F)c3nc(OCC45CCCN4C[C@H](OCCCP(C)(C)=O)C5)nc1c23 (single isomer, unassigned) [Compound 677] | – | ≤ 2000 nM | ≤ 2000 nM | ≤ 2000 nM |
| N#Cc1c(N)sc2c(F)ccc(-c3c(Cl)c4c5c(nc(OC[C@@]67CCCN6C[C@H](F)C7)nc5c3F)N(C(c3cccnc3N)C(F)F)CCO4)c12 (single isomer, unassigned) [Compound 618] | – | ≤ 2000 nM | ≤ 2000 nM | ≤ 2000 nM |
| N#Cc1c(N)sc2c(F)ccc(-c3c(C(F)(F)F)c4c5c(nc(OC[C@@]67CCCN6C[C@H](F)C7)nc5c3F)N([C@H](CC3CCOC3)c3cccnc3N)CCO4)c12 (single isomer, unassigned) [Compound 717] | > 2000 nM | > 2000 nM | > 2000 nM | – |
| CC(c1cccnc1N)N1CCOc2c(Cl)c(-c3ccc(F)c4sc(N)c(C#N)c34)c(F)c3nc(OC[C@@]45CCCN4C[C@H](F)C5)nc1c23 (single isomer, unassigned) [Compound 656] | – | ≤ 2000 nM | ≤ 2000 nM | ≤ 2000 nM |
| N#Cc1c(N)sc2c(F)ccc(-c3c(C(F)(F)F)c4c5c(nc(OC[C@@]67CCCN6C[C@H](F)C7)nc5c3F)N([C@H](CC3CCOCC3)c3cccnc3N)CCO4)c12 (single isomer, unassigned) [Compound 642] | – | ≤ 2000 nM | ≤ 2000 nM | ≤ 2000 nM |
| C[C@H](c1ccc(F)nc1N)N1CCOc2c(C(F)(F)F)c(-c3ccc(F)c4sc(N)c(C#N)c34)c(F)c3nc(OC[C@@]45CCCN4C[C@H](F)C5)nc1c23 (single isomer, unassigned) [Compound 628] | – | ≤ 2000 nM | ≤ 2000 nM | ≤ 2000 nM |
| C=CC[C@H](c1cccnc1N)N1CCOc2c(C(F)(F)F)c(-c3ccc(F)c4sc(N)c(C#N)c34)c(F)c3nc(OC[C@@]45CCCN4C[C@H](F)C5)nc1c23 (single isomer, unassigned) [Compound 734] | ≤ 2000 nM | > 2000 nM | > 2000 nM | – |
| C[C@H](c1cccnc1N)N1CCOc2c(Cl)c(-c3cccc4sc(N)c(C#N)c34)c(F)c3nc(OC[C@@]45CCCN4CC(=C(F)F)C5)nc1c23 (single isomer, unassigned) [Compound 688] | ≤ 2000 nM | – | – | – |
| N#Cc1c(N)sc2c(F)ccc(-c3c(C(F)(F)F)c4c5c(nc(OC[C@@]67CCCN6C[C@H](F)C7)nc5c3F)N([C@H](CCC3CC(F)(F)C3)c3cccnc3N)CCO4)c12 (single isomer, unassigned) [Compound 724] | ≤ 2000 nM | – | – | – |
| CCO/N=C(\C)CCC[C@H](c1cccnc1N)N1CCOc2c(C(F)(F)F)c(-c3ccc(F)c4sc(N)c(C#N)c34)c(F)c3nc(OC[C@@]45CCCN4C[C@H](F)C5)nc1c23 (single isomer, unassigned) [Compound 720] | ≤ 2000 nM | ≤ 2000 nM | ≤ 2000 nM | – |
| N#Cc1c(N)sc2c(F)ccc(-c3c(Cl)c4c5c(nc(OC[C@@]67CCCN6C[C@H](F)C7)nc5c3F)N(C(C=C(F)F)c3cccnc3N)CCO4)c12 (single isomer, unassigned) [Compound 712] | ≤ 2000 nM | – | – | – |

More lines, now with the values ahead:

| IC50 (KRAS G12D) | IC50 (KRAS WT) | IC50 (KRAS G12V) | IC50 (KRAS G12S) | Compound |
| --- | --- | --- | --- | --- |
| ≤ 2000 nM | ≤ 2000 nM | ≤ 2000 nM | – | C[C@H](c1cccnc1N)N1CCOc2c(C(F)(F)F)c(-c3ccc(F)c4sc(N)c(C#N)c34)c(F)c3nc(OC[C@@]45CCCN4C[C@H](F)C5)nc1c23 (single isomer, unassigned) [Compound 757] |
| > 2000 nM | > 2000 nM | – | > 2000 nM | Cc1cnc(N)c([C@@H](C)N2CCOc3c(C(F)(F)F)c(-c4ccc(F)c5sc(N)c(C#N)c45)c(F)c4nc(OC[C@@]56CCCN5C[C@H](F)C6)nc2c34)c1 (single isomer, unassigned) [Compound 861] |
| – | – | – | ≤ 2000 nM | C[C@H](c1cccnc1N)N1CCOc2c(C(F)(F)F)c(-c3ccc(F)c4sc(N)c(C#N)c34)c(F)c3nc(OC[C@@]45CCCN4C[C@H](F)C5)nc1c23 (single isomer, unassigned) [Compound 768] |
| ≤ 2000 nM | ≤ 2000 nM | ≤ 2000 nM | – | N#Cc1c(N)sc2c(F)ccc(-c3c(C(F)(F)F)c4c5c(nc(OC[C@@]67CCCN6C[C@H](F)C7)nc5c3F)N([C@H](CC3CCOC3)c3cccnc3N)CCO4)c12 (single isomer, unassigned) [Compound 911] |
| ≤ 2000 nM | ≤ 2000 nM | ≤ 2000 nM | – | N#Cc1c(N)sc2c(F)ccc(-c3c(C(F)(F)F)c4c5c(nc(OC[C@@]67CCCN6C[C@H](F)C7)nc5c3F)N([C@H](CC3CCOC3)c3cccnc3N)CCO4)c12 (single isomer, unassigned) [Compound 772] |
| – | ≤ 2000 nM | – | – | N#Cc1c(N)sc2c(F)ccc(-c3c(C(F)(F)F)c4c5c(nc(OC[C@@]67CCCN6[C@H](COc6cnc(C(F)(F)F)cn6)CC7)nc5c3F)N([C@@H](c3cccnc3N)C(F)F)CCO4)c12 (single isomer, unassigned) [Compound 887] |
| > 2000 nM | > 2000 nM | – | > 2000 nM | C[C@H](c1cccnc1N)N1CCOc2c(C(F)(F)F)c(-c3cc(F)c(F)c4sc(N)c(C#N)c34)c(F)c3nc(OC[C@@]45CCCN4C[C@H](F)C5)nc1c23 (single isomer, unassigned) [Compound 863] |
| > 2000 nM | > 2000 nM | > 2000 nM | – | CCO/N=C(\C)CCC[C@H](c1cccnc1N)N1CCOc2c(C(F)(F)F)c(-c3ccc(F)c4sc(N)c(C#N)c34)c(F)c3nc(OC[C@@]45CCCN4C[C@H](F)C5)nc1c23 (single isomer, unassigned) [Compound 859] |
| ≤ 2000 nM | – | ≤ 2000 nM | ≤ 2000 nM | N#Cc1c(N)sc2c(F)ccc(-c3c(C(F)(F)F)c4c5c(nc(OC[C@@]67CCCN6[C@H](COc6cnc(C(F)(F)F)cn6)CC7)nc5c3F)N([C@@H](c3cccnc3N)C(F)F)CCO4)c12 (single isomer, unassigned) [Compound 882] |
| ≤ 2000 nM | ≤ 2000 nM | – | – | N#Cc1c(N)sc2c(F)ccc(-c3c(C(F)(F)F)c4c5c(nc(OC[C@@]67CCCN6C[C@H](F)C7)nc5c3F)N([C@H](CCC3CCC3)c3cccnc3N)CCO4)c12 (single isomer, unassigned) [Compound 745] |
| ≤ 2000 nM | – | – | – | CN(C)CC[C@H](c1cccnc1N)N1CCOc2c(C(F)(F)F)c(-c3ccc(F)c4sc(N)c(C#N)c34)c(F)c3nc(OC[C@@]45CCCN4C[C@H](F)C5)nc1c23 (single isomer, unassigned) [Compound 758] |
